Experimental data taken from US11944612B2, “Dosing regimens for 2-hydroxy-6-((2-(1-isopropyl-1H-pyrazol-5-yl)pyridin-3-yl)methoxy)benzaldehyde” (Global Blood Therapeutics, Inc., priority 2015, dated 2024).

Assays:
[1] = Phase I study: whole blood and plasma pharmacokinetics of GBT440 (LC-MS-MS); format: in vivo, human; conditions: for half-life: human, whole blood, oral
Method: (§1) The following example presents a Phase I randomised, placebo-controlled, double-blind, single and multiple ascending dose study of the tolerability and pharmacokinetics of Compound 1 (GBT440) in healthy subjects and patients with Sickle Cell Disease.
(§2) Experimental: GBT440 • Subjects randomized 6:2 to receive daily oral dosing of GBT440 or placebo for 1 day (single dose) and up to 28 days (multiple dose)
Analysis of whole blood was performed as follows. 50 μL of diluted whole blood was mixed with 20 μL of GBT1592 (GBT440-D7) solution in acetonitrile. 0.3 mL of 0.1M citrate buffer solution (pH 3) was added to the sample, and the sample mixed briefly by vortexing, followed by sonication for 10 minutes. 2.0 mL methyl tert butyl ether (MTBE) was added to the sample, and the sample was capped, and mixed thoroughly by vortexing at high speed for 20 minutes. The sample was then centrifuged at 3300 rpm at room temperature for 10 minutes. 0.2 mL of the clear organic layer of the centrifuged sample was then transferred to a clean 96-well 2-mL plate, and the solvent was evaporated to dryness. […] The resultant reconstituted extract was analyzed by liquid chromatography mass spectrometry (LCMS).
For the LCMS, a Sciex API 4000 LC-MS-MS was equipped with an HPLC column. The peak area of the m/z 338.1→158.1 GBT440 product ion was measured against the peak area of the m/z 345.2→159.1 GBT1592 (GBT440-D7) internal standard product ion.
The whole blood samples, obtained as described above, were analyzed for pharmacokinetic parameters and RBC:Plasma ratios, as follows.
Terminal half-life and other pharmacokinetic parameters were calculated using Phoenix WinNonlin software. Apparent terminal half-life (t1/2) values were calculated as ln(2)/k, where k is the terminal elimination rate constant which is obtained by performing a linear regression on the terminal phase of a plot of the natural logarithm (ln) of concentration versus time.
RBC:Plasma ratio was calculated using the equation below. […]

[2] = system: sickle cells; assay: Irreversibly sickled cells counted in peripheral blood smears; format: in vivo, human
Excerpt: To quantify irreversibly sickled cells (ISCs), six different fields were randomly selected and imaged at 40× magnification per slide. Each field contained 100 to 300 cells and >500 cells (in 3 or more fields) were counted per blood smear slide. Cells that were classically sickled shape or appeared linear (with length equal to or more than 3× the width) with irregular or pointed edges were counted as sickled. Elliptical red blood cells (also appearing linear but with length approximately twice the width) with smooth rounded edges were counted as normal. In general, isolated non-discoid cells with spiky turns were counted as sickled.
Morphological criteria for sickle cells included the following categories: (1) non-discoid irregular shaped cells with irregular or pointed edges; (2) elliptocytes with length more than twice the width and with irregular or pointed edges; and (3) irregular shaped elliptocytes.

[3] = Phase I study: hemolysis measures / response parameters in subjects with SCD; format: in vivo, human
Excerpt: as §1
Other Outcome Measures: • Percentage of sickled cells under ex vivo conditions [Time Frame: 30 days] • Effect of GBT440 on hemolysis as measured by LDH, direct bilirubin, hemoglobin, and reticulocyte count [Time Frame: 30 days] • Change from baseline in pain as measured by visual analog scale [Time Frame: 30 days] • Change from baseline in fatigue as measured by questionnaire [Time Frame: 30 days] • Exercise capacity as measured by 6-minute walk test [Time Frame: 30 days]
as §2
Inclusion Criteria: • Healthy male or female of non-child bearing potential; 18 to 55 years old; are non-smokers and have not used nicotine products within 3 months prior to screening. • Male or female, 18 to 60 years old, with sickle cell disease (hemoglobin SS) not requiring chronic blood transfusion therapy; without hospitalization in 30 days before screening or receiving blood transfusion within 30 days before screening; subjects are allowed concomitant use of hydroxyurea if the dose has been stable for the 3 months prior to screening. […]

[4] = target: T1, hemoglobin (Homo sapiens, UniProt P68871+P69905, E7V); assay: Whole blood hemoximetry (oxygen equilibrium curves, % Hb modification); format: in vivo; conditions: 500 mg
T1 construct: from tissue; host or cells: whole blood (red blood cells) of study subjects
Method: Whole blood hemoximetry was used to measure oxygen equilibration. Blood from healthy volunteers and sickle cell disease (SCD) patients was drawn into 1.8 mL sodium citrate tubes. These samples were stored overnight at 4° C. prior to hemoximetry measurements. Based upon the hematocrit of the blood, either 50 μL or 100 μL of blood was diluted into 5 mL of 37° C. TES buffer (30 mM TES, 130 mM NaCl, 5 mM KCl, pH 7.4 at 25° C.). Diluted sample were loaded into TCS Hemox Analyzer cuvettes and oxygenated for twenty minutes using compressed air. After oxygenation, the samples were deoxygenated using nitrogen gas until the pO2 reached 1.6 millimeters of mercury (mm Hg). Data during this deoxygenation step was collected into Oxygen Equilibrium Curve (OEC) files using the TCS Hemox Analytical Software (HAS). OEC files were then analyzed to obtain the p50 (the partial pressure of oxygen at which 50% of hemoglobin in a sample is saturated with O2) and the p20 (the partial pressure of oxygen at which 20% of hemoglobin in a sample is saturated with O2). Delta p20 values (p20predose−p20sample time) were then used to calculate the % Hb Modification.

[5] = target: hemoglobin (Homo sapiens, UniProt P68871+P69905); conditions: in vitro and in vivo; cited from earlier work
[6] = 500 mg (Cohort 12), n = 10, subjects with SCD
[7] = 700 mg (Cohort 11), n = 12, subjects with SCD
[8] = 1000 mg (500 mg twice daily, Cohort 14), n = 5, subjects with SCD

Q: With CC(C)n1nccc1-c1ncccc1COc1cccc(O)c1C=O [Compound 1, 2-hydroxy-6-((2-(1-isopropyl-1h-pyrazol-5-yl)pyridin-3-yl)methoxy)benzaldehyde] as the compound, how does the half-life ([1]; SCD subjects) read?
A: ~38.4 h

Q: What about the half-life ([1]; healthy subjects) of the same compound?
A: ~72 h

Q: And the “increase in GBT440 with dose” value ([1]; single and multiple dosing)?
A: dose proportional increase

Q: And the “Irreversibly sickled cells, change from baseline to Day 28, median” value (shortened to “Irreversibly sickled cells, change”) [2, 6]?
A: −56.4%

Q: And the “percent sickle cells over time” value ([2]; 500 mg, 700 mg vs placebo, 28 day dosing period (FIG. 6))?
A: reduced sickle cells in the peripheral blood

Q: What about the “Irreversibly sickled cells, change” value [2, 7] of the same compound?
A: −45.9%

Q: And the “Irreversibly sickled cells, change” value [2, 8]?
A: −45.7%

Q: What about the “sickle cells in peripheral blood smears” value ([2]; subject treated with 700 mg, day 1 vs day 28 (FIGS. 7A-7B)) of the same compound?
A: marked reduction in sickle cells

Q: And the “Hemoglobin, change from baseline to Day 28, median” value (“Hemoglobin, change from baseline” below) [3, 6]?
A: 0.4 g/dL

Q: What about the “Lactate dehydrogenase, change from baseline to Day 28, median” value (“Lactate dehydrogenase, change” below) [3, 6] of the same compound?
A: −19.8%

Q: And the “Reticulocytes, change from baseline to Day 28, median” value (“Reticulocytes, change from baseline” for short) [3, 6]?
A: −31.2%

Q: And the “Unconjugated bilirubin, change from baseline to Day 28, median” value (“Unconjugated bilirubin, change” below) [3, 6]?
A: −30.6%

Q: And the “change in hemoglobin over time” value ([3]; 500 mg, 700 mg vs placebo (FIG. 4))?
A: rapid and progressive rise in hemoglobin levels

Q: And the “percent change in reticulocytes over time” value ([3]; 500 mg, 700 mg vs placebo (FIG. 5))?
A: profound decline in reticulocytes

Q: What about the “Hemoglobin, change from baseline” value [3, 7] of the same compound?
A: 0.7 g/dL

Q: What about the “Lactate dehydrogenase, change” value [3, 7] of the same compound?
A: −11.9%

Q: And the “Reticulocytes, change from baseline” value [3, 7]?
A: −37.0%

Q: What about the “Unconjugated bilirubin, change” value [3, 7] of the same compound?
A: −42.6%

Q: And the “hemoglobin response, higher dose level compared to lower” value ([3]; 700 mg compared to 500 mg (FIG. 4))?
A: trend for a better response

Q: And the “Hemoglobin, change from baseline” value [3, 8]?
A: 0.0 g/dL

Q: And the “Lactate dehydrogenase, change” value [3, 8]?
A: −12.4%

Q: And the “Reticulocytes, change from baseline” value [3, 8]?
A: −49.9%

Q: And the “Unconjugated bilirubin, change” value [3, 8]?
A: −56.3%

Q: What about the “reticulocyte counts versus exposure” value ([3]; higher GBT440 exposures, day 28 (FIG. 8)) of the same compound?
A: more profound reduction in reticulocyte counts

Q: And the “hematologic response by Hb occupancy” value ([3]; participants who achieved >20% Hb occupancy compared to those who did not)?
A: improved hematologic response

Q: And the hemoglobin modification ([4]; 700 mg (FIG. 3))?
A: proportional to dose

Q: What about the “shift of the oxygen equilibrium curve” value ([4]; 700 mg vs placebo, SCD subjects (FIG. 3)) of the same compound?
A: left shift of the oxygen equilibrium curve

Q: With O=Cc1ccc(CO)o1 [Compound 5HMF, 5-hydroxymethyl-2-furfuraldehyde] as the compound, how does the hemoglobin modulation [5] read?
A: potent hemoglobin modulator both in vitro and in vivo
